Data published in ChEMBL document CHEMBL5214921, “Bacterial type I signal peptidase inhibitors - Optimized hits from nature” (Eur J Med Chem, 2022).
In brackets after ≈: the same amount, converted by molar mass. *1 amine or outer side, *2 acyl side, *3 side chain or, on linkers, in order; H or OH if unused. Where a SMILES comes first, the peptide text is derived from it. [ ]: non-standard residue; d: D form. The star is where a group is joined. X1 = C[C@H](N[*:1])C(=O)C(=O)[*:2]; NMeT = CN[C@H](C(=O)O)[C@@H](C)O; Decanoyl = CCCCCCCCCC(=O)*; βAla = NCCC(=O)O

Experiments:
[1] = Inhibition of LepB (unknown origin); parameters: species or system Bacteria
Staphylococcus aureus [2] = test: Antibacterial activity against methicillin-resistant Staphylococcus aureus assessed as bacterial growth inhibition; type: functional
Staphylococcus aureus [3] = test: Antibacterial activity against methicillin-resistant Staphylococcus aureus assessed as bacterial growth inhibition measured after 24 hrs; type: functional
Staphylococcus aureus [4] = test: Antibacterial activity against Staphylococcus aureus NCTC 8325 assessed as bacterial cell growth inhibition by CLSI based broth microdilution method; type: functional
[5] = test system: Staphylococcus epidermidis; test: Antibacterial activity against Staphylococcus epidermidis assessed as bacterial cell growth inhibition by CLSI based broth microdilution method; type: functional
Pseudomonas aeruginosa [6] = test: Antibacterial activity against wild type Pseudomonas aeruginosa PA14 assessed as inhibition of bacterial growth […] by CLSI based protocol; type: functional
Pseudomonas aeruginosa [7] = test: Antibacterial activity against wild type Pseudomonas aeruginosa PA14 assessed as inhibition of bacterial growth; type: functional
Escherichia coli [8] = test: Antibacterial activity against Escherichia coli ATCC 25922 assessed as bacterial cell growth inhibition; type: functional
Staphylococcus aureus [9] = test: Antibacterial activity against Staphylococcus aureus assessed as bacterial cell growth inhibition; type: functional
[10] = test system: Staphylococcus epidermidis; test: Antibacterial activity against Staphylococcus epidermidis assessed as bacterial cell growth inhibition; type: functional
[11] = Inhibition of Escherichia coli Signal peptidase I using decanoyl-k(DABCYL)-TPTAKAASKKD-D(EDANS)-NH2 as substrate by fluorescence-based analysis
[12] = Inhibition of Streptococcus pneumoniae Signal peptidase I using decanoyl-k(DABCYL)-TPTAKAASKKD-D(EDANS)-NH2 as substrate by fluorescence-based analysis
[13] = Inhibition of Staphylococcus aureus SpsB incubated for 15 mins by fluorescence based analysis
[14] = test system: Staphylococcus epidermidis; test: Antibacterial activity against Staphylococcus epidermidis ATCC 35984 assessed as bacterial cell growth inhibition measured after 18 hrs by CLSI based broth microdilution method; type: functional
Escherichia coli [15] = test: Antibacterial activity against Escherichia coli MG1655 assessed as bacterial cell growth inhibition measured after 18 hrs by CLSI based broth microdilution method; type: functional
Escherichia coli [16] = test: Antibacterial activity against Escherichia coli assessed as bacterial cell growth inhibition; type: functional
Staphylococcus aureus [17] = test: Antibacterial activity against Staphylococcus aureus 8325 assessed as bacterial cell growth inhibition measured after 18 hrs by CLSI based broth microdilution method; type: functional

C=CCOC(=O)C1=CS[C@H]2[C@@H]([C@@H](C)O)C(=O)N12
IC50 [1]: 180 nM

C=CCOC(=O)C1=CS[C@H]2[C@@H]([C@@H](C)OC(C)=O)C(=O)N12
IC50 [1]: 70 nM

O=C(Nc1ccc2c(c1)OC(F)(F)O2)Nc1ccc(Cl)c(C(F)(F)F)c1
MIC (Staphylococcus aureus [2]): 0.12 µg/mL (≈ 0.304 µM)
MIC (Staphylococcus aureus [3]): 0.3 µM (≈ 0.118 µg/mL)

C[C@@H]1NC(=O)[C@@H](N(C)C(=O)CNC(=O)[C@@H](C)NC(=O)[C@@H](CO)NC(=O)CCCCCCCCc2ccc(-c3ccccc3)cc2)c2ccc(O)c(c2)-c2cc(ccc2O)C[C@@H](C(=O)O)NC1=O
MIC (Staphylococcus aureus [4]): 16 µg/mL (≈ 17.4 µM)
MIC [5]: 16 µg/mL (≈ 17.4 µM)

Cc1nc(-c2ccc(C(C)(C)C)cc2)ncc1C(=O)N[C@@H](CCN)C(=O)N(C)[C@@H]1C(=O)N[C@@H](C)C(=O)N[C@H](C(=O)NCC#N)Cc2cc(OCCN)cc(c2)-c2cc1ccc2OCCN
MIC (Pseudomonas aeruginosa [6]): 2 µM (≈ 1.78 µg/mL)
MIC (Pseudomonas aeruginosa [7]): 1.78 µg/mL (≈ 2 µM)
MIC (Escherichia coli [8]): 0.125 µg/mL (≈ 0.14 µM)
MIC (Staphylococcus aureus [9]): 0.06 µg/mL (≈ 0.0674 µM)
MIC [10]: 0.25 µg/mL (≈ 0.281 µM)

CCCC(C)/C=C(/C)C(=O)OC(CCCCCCC/C=C/C(=O)NCCC(=O)N[C@@H](CS(=O)(=O)O)C(=O)N(C)[C@@H]1C(=O)N[C@@H](C)C(=O)N[C@H](C(=O)O)Cc2ccc(O)c(c2)-c2cc1cc(O)c2O[C@@H]1O[C@@H](C)[C@H](OS(=O)(=O)O)[C@@H](OS(=O)(=O)O)[C@H]1O)CCC(C)C (stereo partly drawn)
IC50 [11]: 110 nM
IC50 [12]: 2400 nM

Cc1nc(-c2ccc(C(C)(C)C)cc2)nc(C)c1C(=O)N[C@@H](CCN)C(=O)N(C)[C@@H]1C(=O)N[C@@H](C)C(=O)N[C@H](C(=O)NCC#N)Cc2cc(OCCN)cc(c2)-c2cc1ccc2OCCN
MIC (Pseudomonas aeruginosa [6]): 2 µM (≈ 1.81 µg/mL)
MIC (Pseudomonas aeruginosa [7]): 1.81 µg/mL (≈ 2 µM)

CCCCCCCCCC(=O)N[C@@H](CC(C)C)C(=O)N[C@H](C(=O)N1CCC[C@H]1C(=O)N(C)[C@H](C(=O)N[C@@H](C)C(=O)N[C@@H](CC(N)=O)C(=O)N[C@@H](C)C(=O)C(=O)NCCC(=O)N[C@@H](CC(=O)O)C(=O)O)[C@@H](C)O)[C@@H](C)O (Decanoyl-LTP[NMeT]AN[X1][βAla]D-OH)
IC50 [13]: 100 nM

CC(C)CCCCCCCCC(=O)N(C)[C@H](CO)C(=O)N[C@H](C)C(=O)NCC(=O)N(C)[C@@H]1C(=O)N[C@@H](C)C(=O)N[C@H](C(=O)O)Cc2ccc(O)c(c2)-c2cc1ccc2O [ARYLOMYCIN A2]
MIC [14]: 1 µM (≈ 0.825 µg/mL)
MIC (Escherichia coli [15]): > 128 µM
MIC (Escherichia coli [16]): 104 µg/mL (≈ 126 µM)
MIC (Staphylococcus aureus [9]): 104 µg/mL (≈ 126 µM)
MIC [10]: 0.81 µg/mL (≈ 0.982 µM)
MIC (Staphylococcus aureus [17]): > 128 µM

CCCCCCCCCCCCCCCC(=O)N(C)[C@H](CO)C(=O)N[C@H](C)C(=O)NCC(=O)N(C)[C@@H]1C(=O)N[C@@H](C)C(=O)N[C@H](C(=O)O)Cc2ccc(O)c(c2)-c2cc1ccc2O [ARYLOMYCIN C16]
MIC [14]: 0.5 µM (≈ 0.441 µg/mL)
MIC (Escherichia coli [15]): 16 µM (≈ 14.1 µg/mL)
MIC (Escherichia coli [16]): 13.9 µg/mL (≈ 15.7 µM)
MIC [10]: 0.43 µg/mL (≈ 0.488 µM)

CNC(=O)c1cc(Oc2ccc(NC(=O)Nc3ccc(Cl)c(C(F)(F)F)c3)cc2)ccn1 [SORAFENIB]
MIC (Staphylococcus aureus [2]): 1.39 µg/mL (≈ 2.99 µM)
MIC (Staphylococcus aureus [3]): 3 µM (≈ 1.39 µg/mL)
